According to US10231954B2, “Neurodegenerative therapies” (LYTIX BIOPHARMA AS, priority 2014, dated 2019):
Where two headings read alike, the source gives them in different places.

Assays:
Type in all cases: biochemical
SIK3 = SIK3 (Homo sapiens, UniProt Q9Y2K2); experiment: Kinase profiling SIK3; conditions: for remaining activity at 100 µM: read-out: residual kinase activity, SIK3
From the text: (§1) Any value less that 25 is considered to be highly significant inhibition.

NEK2a = biological target: T1, NEK2a (Homo sapiens, UniProt P51955); experiment: Kinase profiling NEK2a; conditions: for remaining activity at 100 µM: read-out: residual kinase activity, NEK2a
T1 sequence (P51955 1-445): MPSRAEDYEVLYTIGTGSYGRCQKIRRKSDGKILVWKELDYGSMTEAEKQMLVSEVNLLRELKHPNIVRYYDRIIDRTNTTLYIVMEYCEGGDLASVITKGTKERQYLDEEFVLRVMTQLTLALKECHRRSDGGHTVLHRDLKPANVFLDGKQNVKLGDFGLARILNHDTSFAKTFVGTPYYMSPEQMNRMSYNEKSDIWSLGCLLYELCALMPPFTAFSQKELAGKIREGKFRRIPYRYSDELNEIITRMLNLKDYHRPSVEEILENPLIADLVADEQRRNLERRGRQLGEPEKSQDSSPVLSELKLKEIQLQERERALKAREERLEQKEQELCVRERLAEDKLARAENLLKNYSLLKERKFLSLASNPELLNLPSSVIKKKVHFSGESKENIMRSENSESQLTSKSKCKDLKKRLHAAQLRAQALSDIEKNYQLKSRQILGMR
From the text: as §1

HIPK1 = HIPK1 (Homo sapiens, UniProt Q86Z02); experiment: Kinase profiling HIPK1; conditions: for remaining activity at 100 µM: read-out: residual kinase activity, HIPK1
Sequence of HIPK1 (Q86Z02 whole entry, species assumed): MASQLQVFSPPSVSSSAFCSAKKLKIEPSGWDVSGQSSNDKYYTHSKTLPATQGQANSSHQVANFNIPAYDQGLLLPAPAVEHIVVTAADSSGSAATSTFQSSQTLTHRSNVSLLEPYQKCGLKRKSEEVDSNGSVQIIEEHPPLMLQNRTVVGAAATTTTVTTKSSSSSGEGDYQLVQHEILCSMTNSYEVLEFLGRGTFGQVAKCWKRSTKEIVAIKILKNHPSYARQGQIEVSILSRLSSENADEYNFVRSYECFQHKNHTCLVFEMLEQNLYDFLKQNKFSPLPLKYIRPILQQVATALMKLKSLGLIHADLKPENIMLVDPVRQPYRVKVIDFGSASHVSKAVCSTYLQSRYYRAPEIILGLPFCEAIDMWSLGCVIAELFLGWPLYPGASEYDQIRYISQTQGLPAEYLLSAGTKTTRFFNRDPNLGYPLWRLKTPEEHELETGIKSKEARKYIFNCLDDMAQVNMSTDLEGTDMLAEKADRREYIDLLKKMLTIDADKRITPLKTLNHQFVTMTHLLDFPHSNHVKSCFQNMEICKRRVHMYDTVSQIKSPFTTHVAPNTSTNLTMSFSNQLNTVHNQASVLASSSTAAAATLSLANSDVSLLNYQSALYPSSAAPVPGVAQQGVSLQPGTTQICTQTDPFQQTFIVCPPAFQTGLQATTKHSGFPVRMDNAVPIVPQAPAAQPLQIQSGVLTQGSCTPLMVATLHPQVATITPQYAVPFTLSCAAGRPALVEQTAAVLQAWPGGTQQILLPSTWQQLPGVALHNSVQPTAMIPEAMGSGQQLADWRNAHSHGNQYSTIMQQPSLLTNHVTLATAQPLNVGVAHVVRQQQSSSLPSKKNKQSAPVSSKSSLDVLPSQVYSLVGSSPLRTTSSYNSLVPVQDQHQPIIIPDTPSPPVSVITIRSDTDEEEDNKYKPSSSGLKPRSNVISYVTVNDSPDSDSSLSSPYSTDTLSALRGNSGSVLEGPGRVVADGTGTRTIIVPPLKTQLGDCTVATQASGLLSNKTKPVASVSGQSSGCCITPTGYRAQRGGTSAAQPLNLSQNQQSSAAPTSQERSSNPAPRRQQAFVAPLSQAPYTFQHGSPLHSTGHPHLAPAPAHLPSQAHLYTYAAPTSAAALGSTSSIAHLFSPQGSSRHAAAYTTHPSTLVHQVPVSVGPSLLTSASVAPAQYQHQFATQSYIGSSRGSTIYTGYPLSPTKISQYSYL
From the text: as §1

MST4 = MST4 (Homo sapiens, UniProt Q9P289); experiment: Kinase profiling MST4; conditions: for remaining activity at 100 µM: read-out: residual kinase activity, MST4
Sequence of MST4 (Q9P289 whole entry, species assumed): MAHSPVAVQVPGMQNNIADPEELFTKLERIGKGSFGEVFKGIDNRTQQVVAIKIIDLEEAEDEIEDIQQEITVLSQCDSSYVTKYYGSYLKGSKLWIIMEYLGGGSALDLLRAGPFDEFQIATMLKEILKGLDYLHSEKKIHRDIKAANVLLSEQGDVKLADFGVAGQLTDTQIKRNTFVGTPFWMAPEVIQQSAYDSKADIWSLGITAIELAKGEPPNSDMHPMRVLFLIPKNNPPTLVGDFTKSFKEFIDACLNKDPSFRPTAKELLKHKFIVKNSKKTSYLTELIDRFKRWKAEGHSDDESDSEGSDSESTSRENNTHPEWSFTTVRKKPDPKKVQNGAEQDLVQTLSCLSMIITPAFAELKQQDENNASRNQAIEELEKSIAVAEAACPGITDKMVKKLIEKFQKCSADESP
From the text: as §1

MEKK1 = MEKK1 (Homo sapiens, UniProt Q13233); experiment: Kinase profiling MEKK1; conditions: for remaining activity at 100 µM: read-out: residual kinase activity, MEKK1
Sequence of MEKK1 (Q13233 whole entry, species assumed): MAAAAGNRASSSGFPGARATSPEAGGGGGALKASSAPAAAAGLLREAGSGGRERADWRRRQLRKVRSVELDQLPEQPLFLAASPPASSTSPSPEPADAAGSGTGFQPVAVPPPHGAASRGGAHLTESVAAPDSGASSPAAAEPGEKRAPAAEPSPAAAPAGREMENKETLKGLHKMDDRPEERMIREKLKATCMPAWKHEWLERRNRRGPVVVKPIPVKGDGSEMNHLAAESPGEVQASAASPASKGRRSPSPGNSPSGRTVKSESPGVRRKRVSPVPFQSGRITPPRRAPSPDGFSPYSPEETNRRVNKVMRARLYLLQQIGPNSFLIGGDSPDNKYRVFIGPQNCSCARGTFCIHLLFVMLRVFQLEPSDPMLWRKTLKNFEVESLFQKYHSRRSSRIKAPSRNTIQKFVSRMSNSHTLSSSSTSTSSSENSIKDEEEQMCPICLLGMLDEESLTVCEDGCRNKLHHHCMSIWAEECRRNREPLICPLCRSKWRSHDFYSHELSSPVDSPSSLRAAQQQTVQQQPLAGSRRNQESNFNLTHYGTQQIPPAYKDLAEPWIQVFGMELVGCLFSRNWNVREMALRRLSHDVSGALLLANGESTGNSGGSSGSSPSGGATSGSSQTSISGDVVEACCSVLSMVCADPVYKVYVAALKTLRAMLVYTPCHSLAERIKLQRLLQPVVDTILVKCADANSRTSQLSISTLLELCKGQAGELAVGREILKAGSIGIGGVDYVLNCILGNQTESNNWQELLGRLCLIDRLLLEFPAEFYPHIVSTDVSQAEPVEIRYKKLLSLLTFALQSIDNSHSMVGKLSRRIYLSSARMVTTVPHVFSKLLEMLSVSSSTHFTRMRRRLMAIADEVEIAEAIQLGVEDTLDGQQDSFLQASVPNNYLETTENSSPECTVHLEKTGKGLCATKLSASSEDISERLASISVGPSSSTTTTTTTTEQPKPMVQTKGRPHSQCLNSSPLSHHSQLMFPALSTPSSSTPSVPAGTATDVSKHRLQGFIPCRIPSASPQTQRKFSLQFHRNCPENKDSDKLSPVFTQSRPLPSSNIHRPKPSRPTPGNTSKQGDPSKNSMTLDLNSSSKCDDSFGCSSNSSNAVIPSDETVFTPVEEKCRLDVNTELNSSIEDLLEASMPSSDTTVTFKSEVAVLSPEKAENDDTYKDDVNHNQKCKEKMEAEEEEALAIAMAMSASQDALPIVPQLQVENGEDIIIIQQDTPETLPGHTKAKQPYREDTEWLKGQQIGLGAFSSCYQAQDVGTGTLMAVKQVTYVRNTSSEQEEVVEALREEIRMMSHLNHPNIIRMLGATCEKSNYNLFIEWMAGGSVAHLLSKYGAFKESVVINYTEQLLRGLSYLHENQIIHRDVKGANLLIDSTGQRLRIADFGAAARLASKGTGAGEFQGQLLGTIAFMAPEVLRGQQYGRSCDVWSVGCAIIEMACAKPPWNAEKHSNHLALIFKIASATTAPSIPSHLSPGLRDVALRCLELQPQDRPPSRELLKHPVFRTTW
From the text: as §1

TAO1 = biological target: T2, TAO1 (Homo sapiens, UniProt Q7L7X3); experiment: Kinase profiling TAO1; conditions: for remaining activity at 100 µM: read-out: residual kinase activity, TAO1
T2 sequence (Q7L7X3 1-1001): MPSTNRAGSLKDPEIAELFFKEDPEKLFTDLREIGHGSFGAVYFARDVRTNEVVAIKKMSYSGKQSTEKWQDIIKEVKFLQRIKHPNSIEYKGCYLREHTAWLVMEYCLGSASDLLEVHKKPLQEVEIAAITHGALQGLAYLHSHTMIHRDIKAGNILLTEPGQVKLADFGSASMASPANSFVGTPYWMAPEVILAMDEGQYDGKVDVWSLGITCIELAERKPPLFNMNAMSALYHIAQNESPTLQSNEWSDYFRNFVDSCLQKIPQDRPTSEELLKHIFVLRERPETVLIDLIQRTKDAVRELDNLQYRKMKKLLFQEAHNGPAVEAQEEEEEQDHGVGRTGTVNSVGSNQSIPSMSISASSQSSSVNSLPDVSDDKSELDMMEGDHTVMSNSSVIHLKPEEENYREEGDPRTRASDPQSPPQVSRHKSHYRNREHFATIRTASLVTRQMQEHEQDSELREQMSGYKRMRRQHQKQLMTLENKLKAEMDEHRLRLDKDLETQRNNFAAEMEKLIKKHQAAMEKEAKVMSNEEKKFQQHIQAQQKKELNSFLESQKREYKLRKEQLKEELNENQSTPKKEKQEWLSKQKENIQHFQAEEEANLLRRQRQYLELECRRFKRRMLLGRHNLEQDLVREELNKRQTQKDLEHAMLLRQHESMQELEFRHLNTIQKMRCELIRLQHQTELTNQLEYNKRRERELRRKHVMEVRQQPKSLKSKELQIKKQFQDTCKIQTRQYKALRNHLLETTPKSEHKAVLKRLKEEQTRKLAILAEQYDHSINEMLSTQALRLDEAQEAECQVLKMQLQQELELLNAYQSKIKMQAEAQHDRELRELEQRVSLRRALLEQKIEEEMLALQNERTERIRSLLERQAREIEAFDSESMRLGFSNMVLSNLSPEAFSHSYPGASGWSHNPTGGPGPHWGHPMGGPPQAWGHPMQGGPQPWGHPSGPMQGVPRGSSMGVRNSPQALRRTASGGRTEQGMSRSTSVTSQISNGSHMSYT
From the text: as §1

EPH-B2 = biological target: T3, EPH-B2 (Homo sapiens, UniProt P29323); experiment: Kinase profiling EPH-B2; conditions: for remaining activity at 100 µM: read-out: residual kinase activity, EPH-B2
T3 sequence (P29323 19-1055): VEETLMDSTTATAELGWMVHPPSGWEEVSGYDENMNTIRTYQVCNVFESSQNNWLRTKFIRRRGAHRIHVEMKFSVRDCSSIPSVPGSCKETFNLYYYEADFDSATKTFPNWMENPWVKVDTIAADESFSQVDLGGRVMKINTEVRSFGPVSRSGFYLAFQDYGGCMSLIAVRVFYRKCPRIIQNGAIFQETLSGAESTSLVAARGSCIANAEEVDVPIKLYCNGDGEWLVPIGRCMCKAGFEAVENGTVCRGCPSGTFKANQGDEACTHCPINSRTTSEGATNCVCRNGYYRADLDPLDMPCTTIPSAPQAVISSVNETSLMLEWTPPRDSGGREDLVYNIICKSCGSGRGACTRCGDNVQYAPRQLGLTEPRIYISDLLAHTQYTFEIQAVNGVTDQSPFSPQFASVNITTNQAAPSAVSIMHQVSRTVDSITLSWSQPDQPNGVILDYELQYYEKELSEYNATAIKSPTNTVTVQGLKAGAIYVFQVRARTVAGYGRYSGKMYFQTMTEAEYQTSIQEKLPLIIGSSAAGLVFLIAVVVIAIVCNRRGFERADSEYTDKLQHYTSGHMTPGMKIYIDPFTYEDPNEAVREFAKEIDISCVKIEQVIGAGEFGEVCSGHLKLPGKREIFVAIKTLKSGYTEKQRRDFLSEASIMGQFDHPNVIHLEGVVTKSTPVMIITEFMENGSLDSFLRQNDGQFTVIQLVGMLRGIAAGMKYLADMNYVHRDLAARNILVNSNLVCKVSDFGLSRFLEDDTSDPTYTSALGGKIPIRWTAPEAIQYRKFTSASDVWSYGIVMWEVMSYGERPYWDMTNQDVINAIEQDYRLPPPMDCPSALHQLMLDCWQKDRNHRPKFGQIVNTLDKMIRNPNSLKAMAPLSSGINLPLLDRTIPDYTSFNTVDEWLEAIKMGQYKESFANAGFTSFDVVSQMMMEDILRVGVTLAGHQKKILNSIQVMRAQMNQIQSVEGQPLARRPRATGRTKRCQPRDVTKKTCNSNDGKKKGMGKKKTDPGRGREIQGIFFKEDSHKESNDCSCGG
From the text: as §1

TTBK2 = TTBK2 (Homo sapiens, UniProt Q6IQ55); experiment: Kinase profiling TTBK2; conditions: for remaining activity at 100 µM: read-out: residual kinase activity, TTBK2
From the text: as §1

[1] = 100 micromolar inhibitor concentration, 100 is no change
[2] = 100 micromolar inhibitor, 100 = no change

Sequence of SIK3 (Q9Y2K2 whole entry, species assumed): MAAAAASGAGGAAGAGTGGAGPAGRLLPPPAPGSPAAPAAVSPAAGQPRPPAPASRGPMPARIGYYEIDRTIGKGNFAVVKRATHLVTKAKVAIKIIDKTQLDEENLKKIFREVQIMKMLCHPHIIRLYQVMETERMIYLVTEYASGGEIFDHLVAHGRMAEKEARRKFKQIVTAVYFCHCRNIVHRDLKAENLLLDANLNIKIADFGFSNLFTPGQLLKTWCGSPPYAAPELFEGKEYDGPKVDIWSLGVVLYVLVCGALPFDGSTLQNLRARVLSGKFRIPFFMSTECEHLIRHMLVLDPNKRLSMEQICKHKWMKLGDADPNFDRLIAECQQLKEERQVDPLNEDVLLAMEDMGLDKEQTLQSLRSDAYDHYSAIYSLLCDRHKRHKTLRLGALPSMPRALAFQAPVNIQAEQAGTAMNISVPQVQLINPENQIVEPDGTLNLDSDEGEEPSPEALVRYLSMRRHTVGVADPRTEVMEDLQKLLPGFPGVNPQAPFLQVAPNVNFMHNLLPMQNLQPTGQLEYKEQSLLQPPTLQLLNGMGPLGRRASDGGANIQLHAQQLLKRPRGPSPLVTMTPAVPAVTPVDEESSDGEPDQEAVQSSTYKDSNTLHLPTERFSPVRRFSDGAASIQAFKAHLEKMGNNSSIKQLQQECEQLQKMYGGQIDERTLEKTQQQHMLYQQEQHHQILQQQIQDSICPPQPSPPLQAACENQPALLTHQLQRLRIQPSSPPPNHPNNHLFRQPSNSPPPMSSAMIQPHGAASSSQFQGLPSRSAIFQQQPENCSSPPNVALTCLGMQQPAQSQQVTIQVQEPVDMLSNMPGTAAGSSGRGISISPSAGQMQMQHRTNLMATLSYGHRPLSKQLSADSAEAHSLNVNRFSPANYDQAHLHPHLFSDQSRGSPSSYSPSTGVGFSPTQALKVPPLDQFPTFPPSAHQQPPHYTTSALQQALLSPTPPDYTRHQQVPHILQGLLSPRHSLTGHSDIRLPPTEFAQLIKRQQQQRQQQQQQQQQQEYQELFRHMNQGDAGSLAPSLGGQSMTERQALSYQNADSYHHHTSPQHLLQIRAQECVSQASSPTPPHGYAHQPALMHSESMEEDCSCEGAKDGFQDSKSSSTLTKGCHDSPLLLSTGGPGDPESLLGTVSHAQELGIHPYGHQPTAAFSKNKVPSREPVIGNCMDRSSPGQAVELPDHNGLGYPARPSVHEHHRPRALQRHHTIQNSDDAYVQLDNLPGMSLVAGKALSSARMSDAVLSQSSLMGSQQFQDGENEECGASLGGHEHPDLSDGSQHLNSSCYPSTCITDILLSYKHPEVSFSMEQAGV

SMILES | remaining activity at 100 µM (SIK3; [1]) [%] | remaining activity at 100 µM (NEK2a; [1]) [%] | remaining activity at 100 µM (HIPK1; [1]) [%] | remaining activity at 100 µM (MST4; [1]) [%] | remaining activity at 100 µM (MEKK1; [1]) [%] | remaining activity at 100 µM (TAO1; [1]) [%] | remaining activity at 100 µM (EPH-B2; [1]) [%] | residual kinase activity, SIK3 (SIK3; [1]) | residual kinase activity, TTBK2 (TTBK2; [1]) | residual kinase activity, NEK2a (NEK2a; [1]) | residual kinase activity, HIPK1 (HIPK1; [1]) | residual kinase activity, MST4 (MST4; [1]) | residual kinase activity, MEKK1 (MEKK1; [1]) | residual kinase activity, TAO1 (TAO1; [1]) | residual kinase activity, EPH-B2 (EPH-B2; [1]) | other results
CC(=O)Nc1nc2cc(O)ccc2s1 [Compound 01-66, N-(5-hydroxybenzo[d]thiazol-2-yl)acetamide] | – | – | – | – | – | – | – | – | – | – | – | – | – | – | – | remaining activity at 100 µM (SIK3): 57%; remaining activity at 100 µM (NEK2a): 85%; remaining activity at 100 µM (HIPK1): 97%; remaining activity at 100 µM (MST4): 84%; remaining activity at 100 µM (MEKK1): 94%; remaining activity at 100 µM (TAO1): 30%; remaining activity at 100 µM (EPH-B2): 70%
CC(=O)Nc1nc2ccc(O)cc2s1 [Compound 01-71] | 46 | 75 | 76 | 70 | 96 | 29 | 59 | – | – | – | – | – | – | – | – | –
CC(=O)Nc1nc2ccc(C(F)(F)F)cc2s1 [Compound 01-90] | 82 | 78 | 48 | 89 | 90 | 71 | 38 | – | – | – | – | – | – | – | – | remaining activity at 100 µM (TTBK2; [1]): 98%
CC(=O)Nc1nc2ccc(C#N)cc2s1 [Compound 01-94] | 73 | 60 | 37 | 75 | 94 | 46 | 42 | – | – | – | – | – | – | – | – | remaining activity at 100 µM (TTBK2; [1]): 78%
CC(=O)Nc1cccc(NC(=O)c2nc3ccc(O)cc3s2)c1 [Compound 03-07, N-(3-acetamidophenyl)-6-hydroxybenzo[d]thiazole-2-carboxamide] | – | – | – | – | – | – | – | – | – | – | – | – | – | – | – | remaining activity at 100 µM (SIK3; [2]): 56%; remaining activity at 100 µM (TTBK2; [2]): 71%; remaining activity at 100 µM (NEK2a; [2]): 38%; remaining activity at 100 µM (HIPK1; [2]): 90%; remaining activity at 100 µM (MST4; [2]): 76%; remaining activity at 100 µM (MEKK1; [2]): 115%; remaining activity at 100 µM (TAO1; [2]): 84%; remaining activity at 100 µM (EPH-B2; [2]): 110%
O=C(Nc1nc2cc(O)ccc2s1)c1ccncc1 [Compound 03-11] | – | – | – | – | – | – | – | 99 | 99 | 93 | 75 | 134 | 106 | 77 | 89 | –
O=C(Nc1nc2ccc(O)cc2s1)c1ccccn1 [Compound 03-12] | – | – | – | – | – | – | – | 82 | 102 | 92 | 47 | 80 | 127 | 74 | 103 | –
O=C(Nc1nc2cc(O)ccc2s1)c1ccccn1 [Compound 03-13] | – | – | – | – | – | – | – | 96 | 71 | 89 | 76 | 76 | 114 | 80 | 72 | –
COc1ccc2sc(NC(C)=O)nc2c1 [Compound 03-21] | 121 | 93 | 39 | 88 | 113 | 72 | 96 | – | – | – | – | – | – | – | – | remaining activity at 100 µM (TTBK2; [1]): 84%
CC(=O)Nc1nc2ccccc2s1 [Compound 03-32] | – | – | – | – | – | – | – | 89 | 85 | 90 | 62 | 110 | 93 | 73 | 116 | –
O=C(Nc1nc2cc(O)ccc2s1)c1cccnc1 [Compound 03-33] | – | – | – | – | – | – | – | 92 | 102 | 99 | 41 | 103 | 107 | 87 | 99 | –
O=C(Nc1nc2ccc(O)cc2s1)c1ccccc1 [Compound 03-60] | – | – | – | – | – | – | – | 42 | 44 | 64 | 9 | 71 | 105 | 62 | 78 | –
